US4531001A, “2-β-D-ribofuranosylselenazole-4-carboxamide compounds” (priority 1983, dated 1985)
“And” between values parts separate entries of the source, which are not always exact repeats. Equal values may be shown once.

Experiments:
[1] = system: L-1210; experiment: Growth inhibition in suspension cell culture, L-1210; format: cell-based; conditions: Mus musculus, L1210, 72 hours, cell count 50 percent of untreated control, read-out: ID50 (the source's name)
Procedure: (§1) In further tests, growth-inhibitory effects of COMPOUND 1 and COMPOUND 2 were measured against 3 mouse tumor lines in suspension cell culture. Cell cultures were initiated at a density of 50,000 cells/ml in medium RPMI 1630 supplemented with 10 percent fetal calf serum. Composition of this culture medium and details of the culture procedure followed the published method (G. E. Moore, A. A. Sandberg and K. Ulrich, Suspension Cell Culture and in vivo and in-vitro chromosome constitution of mouse leukemia L1210, Journal of the National Cancer Institute 36, 405-415, 1966). Cultures were maintained at 37 degrees in stationary suspension culture under a 95 percent air+5 percent CO2 atmosphere. Test compounds were added to treated cultures at the time of initiation, and were present continually. After 72 hours, 40-fold dilutions of drug-treated and untreated control cultures were prepared in 0.9 percent NACl solution, and cells were counted on an electronic particle counter. The growth-inhibitory effects are expressed as ID50 values, namely, test compound inhibitory dosages or concentrations required to decrease cell count in treated cultures to 50 percent of the cell count of untreated control cultures.

[2] = system: P388; experiment: Growth inhibition in suspension cell culture, P388; format: cell-based; conditions: Mus musculus, 72 hours, cell count 50 percent of untreated control, read-out: ID50 (the source's name)
Procedure: as §1

[3] = system: 3 mouse tumor lines; experiment: Growth inhibition in suspension cell culture, representative tumor lines; format: cell-based
Procedure: as §1

[4] = system: Lewis lung carcinoma; experiment: Antitumor activity against Lewis lung carcinoma, Example 14 (Table IV); format: in vivo, B6D 2F 1 male mice; set-up: Treated Group Survival Time: unit not given here; conditions: for Treated Group Survival Time: mean, control 19.0
Procedure: As illustrative examples of the antitumor use of COMPOUNDS 1 and 2, Examples 12 through 14, below, are given. […] The tests utilized in these illustrative examples were conducted by the Developmental Therapeutics Program, Division of Cancer Treatment, National Cancer Institute. The tests were supervised by this agency utilizing their standard protocols and procedures. All tests conformed to these protocols and all tests were evaluated under the criteria defined by these protocols. The following representative examples illustrate confirmed activity of the illustrative compounds of the invention against screening tumor systems of the National Cancer Institute.
For purposes of the following examples, the abbreviation IP stands for intraperitoneal and IV stands for intravenous. The mean and median survival times are calculated in instruction 14 (revised 6/78) of the Screening Data Summary, Developmental Therapeutics Program, Division of Cancer Treatment, National Cancer Institute. The contents of this Screening Data Summary including appropriate revisions are herein incorporated by reference.
In the illustrated examples below, the vehicle used as carrier for the drug was injected (minus any drug therein) into the control animals at the same level of use of the vehicle in the drug treated animals in order to eliminate any vehicle effect of the tests.
In both the control group and the drug treated group in Example 12, the animals were inoculated on day zero with a homogenate of 10^6 seed cells of Lewis lung carcinoma. For Example 12, drug treatment was started on day one and COMPOUND 1 given once daily for nine days. Day five was utilized as the cut-off date for deaths attributable to toxicity of the drug. […] Efficacy of treatment was determined by comparing median survival time of the control animals and is expressed as percentage increase of treated animals/control animals (T/C).
COMPOUND 2, 2-(5-phosphono-β-D-ribofuranosyl)selenazole-4-carboxamide was screened for Lewis lung carcinoma activity in a manner similar to that described in Example 12. In this example, B6D 2F 1 male mice were challenged with Lewis lung carcinoma. The mean survival time of the test animals was compared to that of appropriate control animals. […] At 13 mg/kg the treated, surviving mice have a T/C of 315 percent and 4 out of 10 cures were achieved.

[5] = system: B16 Melanoma; experiment: Growth inhibition in suspension cell culture, B16 Melanoma; format: cell-based; conditions: Mus musculus, 72 hours, cell count 50 percent of untreated control, read-out: ID50 (the source's name)
Procedure: as §1

NC(=O)c1c[se]c([C@@H]2O[C@H](COP(=O)(O)O)[C@@H](O)[C@H]2O)n1 [COMPOUND 2, 2-β-D-Ribofuranosylselenazole-4-Carboxamide 5'-phosphate]
IC50 [1]: 58 nM | IC50 [2]: 66 nM | growth inhibition compared with COMPOUND 1, in words ([3]; cell culture): appears to be superior to COMPOUND 1 | growth inhibition in words ([3]; representative tumor lines in cell culture): inhibit growth in cell culture for representative tumor lines at extremely low dosage | Cures ([4]; 3 mg/kg): 0/10 | Percent Treated Animals/Control Animals (T/C) ([4]; 3 mg/kg): 109% | Treated Group Survival Time ([4]; 3 mg/kg): 20.8 | Cures ([4]; 6 mg/kg): 0/10 | Percent Treated Animals/Control Animals (T/C) ([4]; 6 mg/kg): 115% | Treated Group Survival Time ([4]; 6 mg/kg): 22.0 | Cures ([4]; 9 mg/kg): 1/10 | Treated Group Survival Time ([4]; 9 mg/kg): 12.5 | Cures ([4]; 13 mg/kg): 4 out of 10 and 4/10 | Percent Treated Animals/Control Animals (T/C) ([4]; 13 mg/kg): 315% | Treated Group Survival Time ([4]; 13 mg/kg): 60.0 | Cures ([4]; 20 mg/kg): 2/10 | Treated Group Survival Time ([4]; 20 mg/kg): 12.0 | Cures ([4]; 33 mg/kg): 3/10 | Treated Group Survival Time ([4]; 33 mg/kg): 12.5 | Cures ([4]; 50 mg/kg): 3/10 | Treated Group Survival Time ([4]; 50 mg/kg): 12.5 | Cures ([4]; 75 mg/kg): 1/10 | Treated Group Survival Time ([4]; 75 mg/kg): 15.5 | antitumor activity in words ([4]; mean survival time versus control): effective antitumor agent | IC50 [5]: 7500 nM
